Data published in patent US10952992B2, “Methods of treating intraocular pressure with activators of Tie-2” (Aerpio Pharmaceuticals, Inc., priority 2015, dated 2021).

Assay: Example 2 plasma concentrations and pharmacokinetics after topical ocular, subcutaneous, intravitreal administration
Format: in vivo, male New Zealand White rabbits
Conditions: all routes and formulations
Description: To measure the concentration of Compound 1 in plasma and ocular tissues following topical ocular, subcutaneous, and intravitreal administration, New Zealand White rabbits were administered Compound 1, and plasma and ocular samples were collected at pre-determined time points. Compound 1 formulations were prepared fresh on each day of dosing.
Ocular tissue samples from both eyes of each animal were collected and weights were recorded. Plasma and ocular tissue sample concentrations of Compound 1 were determined by LC-MS/MS.
New Zealand White rabbits weighing 2.5 to 3.5 kg were used on this study. Rabbits were housed one per cage. Animals were not fasted and only healthy animals with no ocular illness were used. Two rabbits per group were sacrificed at each of four ocular tissue sampling time points for a total of eight rabbits per group.
Animals were anesthetized for ocular (topical) and intravitreal dosing following the 12IA7 IACUC protocol. Each rabbit received a bolus dose of test formulation either via topical ocular administration 3 times daily on Days 1 and 2 (at 0, 6, and 12 hours), and once on Day 3 (at 0 hours) into both eyes; via intravitreal administration into both eyes once on Day 1 (at 0 hours); or via subcutaneous administration 2 times daily on Days 1 and 2 (at 0 and 8 hours) and once daily on Day 3 (at 0 hours). Doses were given within an approximately 1 hour window each day where applicable.
Each blood sample was collected on Day 3 post dose at pre-determined time points from the rabbits via an ear vessel and placed into chilled polypropylene tubes containing sodium heparin as an anticoagulant. Samples were spun by centrifuge at 4° C. and 3,000× g for 5 minutes. Samples were maintained chilled throughout processing. Each plasma sample was placed on dry ice and stored in a freezer at −60° C. to −80° C. pending bioanalysis.
An LC-MS/MS method was developed for the determination of Compound 1 in rabbit aqueous tissues (plasma, aqueous and vitreous humor) and solid ocular tissue samples. A pre-study standard curve was analyzed to determine the specificity, range, and lower limit of quantitation of the method. Plasma and tissue homogenate study samples were extracted and analyzed. All the samples were treated identically to the standards.
One eight-point standard curve was used in each analytical batch. To be accepted, each batch must have had at least five of eight standards with accuracy within ±20% of nominal, except at the lower limit of quantification (LLOQ), where ±25% was acceptable.
Pharmacokinetic parameters were calculated from the time course of the plasma concentration. The maximum plasma concentration (Cmax) and time to the maximum plasma drug concentration (Tmax) were the observed values for each concentration-time profiles. The area under the plasma drug concentration-time curve (AUClast, with last being from time 0 to the last quantifiable point) was calculated using the trapezoidal formula. The mean residence time MRTlast was calculated as a ratio of AUMClast (area under the first movement curve) to AUClast.

systemic exposure, as measured in plasma: confirmed
Compound: COC(=O)N[C@@H](Cc1ccccc1)C(=O)N[C@@H](Cc1ccc(NS(=O)(=O)O)cc1)c1csc(-c2cccs2)n1 [Compound 1]
